According to paper PMC6770006, “Novel Heat Shock Protein 90 Inhibitors Suppress P-Glycoprotein Activity and Overcome Multidrug Resistance in Cancer Cells” (International Journal of Molecular Sciences, 2019):

Legend:
Hsp90 = system: Hsp90; design: method as in PMID 22538015; settings: read-out: Hsp90 Affinity binding; cited from earlier work
P-gp expression = assay: Flow cytometric analysis of P-gp expression; format: cell-based, human; settings: 72 h; for Change in P-gp expression, DLD1 / Change in P-gp expression, NCI-H460: 5 µM 5, 200 nM 7, 100 nM 9, 10 nM TQ, 50 nM DOX, 50 nM PTX
Method: P-glycoprotein expression level in NCI-H460, NCI-H460/R, DLD1, and DLD1-TxR and cells was measured by flow cytometry. All cell lines were seeded in adherent 6-well plates and treated with Hsp90 inhibitors for 72 h at the following concentrations: 5 µM compound 5, 200 nM compound 7, 100 nM compound 9 (NCI-H460 and DLD1), and 10 µM compound 5, 500 nM compound 7, 500 nM compound 9 (NCI-H460/R and DLD1-TxR). Cells were also treated with 10 nM TQ, a non-competitive P-gp inhibitor, which served as a positive control. In addition, sensitive cells (NCI-H460 and DLD1) were treated with 50 nM DOX and 50 nM PTX that served as positive controls for the induction of P-gp expression. Then, cells were collected by trypsinization, washed with PBS, and directly immunostained by FITC-conjugated anti-P-gp antibody according to the manufacturer’s protocol. The samples were kept in the dark until the analysis on CyFlow Space Partec flow cytometer (Sysmex Partec GmbH, Görlitz, Germany). The fluorescence of FITC-conjugated anti-P-gp was detected on fluorescence channel 1 (FL1-H) at 530 nm. A minimum of 10,000 events were collected for each sample (the gate excluded cell debris and dead cells) and the obtained results were analyzed with Summit software v4.3 (Dako Colorado Inc., Fort Collins, CO, USA).

NCI-H460/R cells = assay: MTT assay, cell growth inhibition, NCI-H460/R (MDR); format: cell-based, human; settings: for Efficacy in MDR NCI-H460/R cells compared with sensitive NCI-H460: 72 h; for IC50: Homo sapiens, NCI-H460, 72 h, MDR cells
Method: (§1) A series of 3-aryl-naphtho[2,3-d]isoxazole-4,9-diones were synthesized (Scheme 1, Figure 1) and their growth inhibition activity was tested in vitro on human non-small cell lung carcinoma NCI-H460, colorectal carcinoma DLD1 and their corresponding MDR cells (NCI-H460/R and DLD1-TxR, respectively), as well as normal embryonic lung fibroblasts MRC-5. The differences in cell growth inhibition between cancer and normal cells obtained by the MTT assay after 72 h treatment are presented in Table 1. The effect of compounds is presented as IC50 values that correspond to the 50% of cell growth inhibition.
Human colorectal carcinoma (DLD1), non-small cell lung carcinoma (NCI-H460), and normal embryonic lung fibroblast (MRC-5) cell lines were purchased from the American Type Culture Collection, Rockville, MD. P-gp overexpressing multidrug resistant DLD1-TxR cells were selected by continuous exposure to stepwise increasing concentrations of paclitaxel from DLD1 cells, while NCI-H460/R cells were selected from NCI-H460 cells after DOX selective pressure. MDR cancer cell lines, DLD1-TxR and NCI-H460/R, and their sensitive counterparts were maintained in RPMI 1640 medium supplemented with 10% FBS, 2 mM L-glutamine, and 10,000 U/mL penicillin, 10 mg/mL streptomycin, 25 mg/mL amphotericin B solutions. MRC-5 cells were cultured in DMEM supplemented with 10% FBS, 4 g/L glucose, 2 mM L-glutamine and 5000 U/mL penicillin, 5 mg/mL streptomycin solution. All cell lines were sub-cultured at 72 h intervals using 0.25% trypsin/EDTA and seeded into a fresh medium at 8000 cells/cm^2. All cell lines were maintained at 37 °C in a humidified 5% CO2 atmosphere.
(§2) Cell viability was assessed by the MTT assay (AppliChem GmbH, Darmstadt, Germany). Cells grown in 25 cm^2 tissue flasks were trypsinized and 1000 cells/well were seeded into flat-bottomed 96-well tissue culture plates and incubated overnight. Subsequently, the cells were treated with increasing concentrations of Hsp90 inhibitors for 72 h: compound 3 (0.1–2.5 µM), compound 4 (0.25–5 µM), compound 5 (0.5–25 µM), compound 6 (50–1000 nM), compound 7 (10–250 nM), compound 8 (0.25–5 µM), compound 9 (10–250 nM), compound 10 (0.5–25 µM), compound 13 (0.5–10 µM), compound 14 (1–25 µM), and compound 15 (10–250 nM). […] After treatment, MTT was added to each well in a final concentration of 0.2 mg/mL for 4 h. Formazan product was dissolved in 200 µl of DMSO, and the absorbance was measured at 540 nm using an automatic LKB 5060-006 Micro Plate Reader (Vienna, Austria). IC50 value was defined as a concentration of the drug that inhibited cell growth by 50% and was calculated by nonlinear regression analysis using GraphPad Prism 6.0 for Windows (La Jolla, CA, USA). Relative selectivity towards cancer cells was calculated as a relation between IC50 value obtained in MRC-5 cells and an average IC50 value from four tested cancer cell lines.

MRC-5 cells = assay: MTT assay, normal embryonic lung fibroblasts MRC-5; format: cell-based, human; settings: for IC50: Homo sapiens, MRC5, MTT, 72 h, normal fibroblasts, read-out: Cell growth inhibition IC50, MRC-5; for Relative Selectivity: IC50 in MRC-5 cells / average IC50 of four cancer cell lines
Method: as §1, §2

P-gp = P-gp (Homo sapiens, UniProt P08183); assay: Rhodamine 123 accumulation assay (P-gp activity, flow cytometry); format: cell-based; design: P-gp overexpressing multidrug resistant DLD1-TxR cells were selected by continuous exposure to stepwise increasing concentrations of paclitaxel from DLD1 cells; endogenous in cells; host or cells: NCI-H460/R and DLD1-TxR (drug-selected MDR human cancer cells); settings: NCI-H460/R and DLD1-TxR, 30 min, Figure 3b
NCI-H460 cells = assay: MTT assay, cell growth inhibition, NCI-H460; format: cell-based; settings: Homo sapiens, 72 h, three independent experiments
Method: as §1, §2

Sequence of P-gp (P08183 whole entry): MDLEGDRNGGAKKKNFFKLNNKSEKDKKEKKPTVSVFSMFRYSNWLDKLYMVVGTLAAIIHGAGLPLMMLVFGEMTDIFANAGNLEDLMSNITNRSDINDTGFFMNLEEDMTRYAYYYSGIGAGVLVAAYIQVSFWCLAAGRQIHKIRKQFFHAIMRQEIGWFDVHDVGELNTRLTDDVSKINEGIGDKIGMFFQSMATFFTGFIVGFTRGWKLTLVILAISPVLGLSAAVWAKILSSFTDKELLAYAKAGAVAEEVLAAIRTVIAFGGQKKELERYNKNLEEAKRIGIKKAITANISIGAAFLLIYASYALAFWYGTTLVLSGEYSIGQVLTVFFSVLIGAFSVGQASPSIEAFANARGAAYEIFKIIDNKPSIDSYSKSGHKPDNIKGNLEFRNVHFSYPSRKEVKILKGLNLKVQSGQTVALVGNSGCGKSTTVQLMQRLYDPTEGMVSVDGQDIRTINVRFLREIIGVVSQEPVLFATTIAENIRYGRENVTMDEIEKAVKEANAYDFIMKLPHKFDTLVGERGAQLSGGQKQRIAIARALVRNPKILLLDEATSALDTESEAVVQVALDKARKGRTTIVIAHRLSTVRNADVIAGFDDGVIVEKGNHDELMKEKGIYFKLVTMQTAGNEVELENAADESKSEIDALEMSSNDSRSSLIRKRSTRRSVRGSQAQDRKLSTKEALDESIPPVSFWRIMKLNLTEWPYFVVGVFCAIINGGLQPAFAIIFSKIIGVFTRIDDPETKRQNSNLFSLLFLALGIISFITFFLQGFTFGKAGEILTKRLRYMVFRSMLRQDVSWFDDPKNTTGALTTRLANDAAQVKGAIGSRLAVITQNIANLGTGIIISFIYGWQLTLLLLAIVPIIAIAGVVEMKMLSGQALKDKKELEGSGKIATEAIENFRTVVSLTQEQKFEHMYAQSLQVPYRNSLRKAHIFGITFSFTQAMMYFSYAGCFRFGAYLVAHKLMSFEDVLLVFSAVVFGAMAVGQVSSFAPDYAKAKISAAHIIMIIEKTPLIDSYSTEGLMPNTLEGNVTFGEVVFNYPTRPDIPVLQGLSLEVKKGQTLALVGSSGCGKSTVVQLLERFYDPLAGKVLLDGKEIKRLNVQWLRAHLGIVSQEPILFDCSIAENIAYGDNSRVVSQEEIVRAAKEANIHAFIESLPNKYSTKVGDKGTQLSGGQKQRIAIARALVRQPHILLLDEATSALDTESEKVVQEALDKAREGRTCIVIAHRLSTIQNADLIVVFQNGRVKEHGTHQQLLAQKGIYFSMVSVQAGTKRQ

Row | Compound | IC50 (Hsp90) [nM] | Change in P-gp expression, DLD1 (P-gp expression) | Change in P-gp expression, NCI-H460 (P-gp expression) | Change in P-gp expression, NCI-H460/R (P-gp expression; 10 µM 5, 500 nM 7, 500 nM 9, 10 nM TQ) | Efficacy in MDR NCI-H460/R cells compared with sensitive NCI-H460 (NCI-H460/R cells) | IC50 (NCI-H460/R cells) [nM] | IC50 (MRC-5 cells) [nM] | Relative Selectivity (MRC-5 cells) | Concentration dependence of P-gp inhibition (Rho 123 accumulation) (P-gp) | IC50 (NCI-H460 cells) [nM]
1 | O=C1c2ccccc2C(=O)c2c(-c3ccccc3O)noc21 [Compound 5] | 1550 | did not change P-gp expression | did not change P-gp expression | significantly increased P-gp expression | further compromised in the presence of MDR phenotype | 25500 ± 925 | 128000 ± 39000 | 10.64 | concentration dependent effect | 5720 ± 73
2 | O=C1c2ccccc2C(=O)c2c(-c3ccncc3)noc21 [Compound 7] | 390 | did not change P-gp expression | did not change P-gp expression | – | evaded resistance in both MDR cancer cell lines | 231 ± 6 | 599 ± 15 | 3.31 | concentration dependent effect | 199 ± 5
3 | O=C1c2ccccc2C(=O)c2c(-c3cccnc3)noc21 [Compound 9] | 540 | did not change P-gp expression | did not change P-gp expression | – | – | 172 ± 5 | 302 ± 8 | 3.33 | concentration dependent effect | 96 ± 2
